The subject of assay [1] is HCMV wild-type. Kind of assay: HCMV yield assay. It counts as cell-based, human cytomegalovirus. The following applies: human foreskin fibroblasts; for IC50: Human betaherpesvirus 5, Fibroblast, read-out: IC50 Ug/ml HCMV. On the procedure:
Yield assay. Monolayer cultures of human foreskin fibroblasts are infected with HCMV wild-type, typically at a multiplicity of infection equal to 0.2, in the presence of inhibitor compound (varying concentrations). At three days post-infection, total virus produced in these cultures (i.e. virus yield) is assessed by harvesting and titering the virus in 12-well plates of cultured human foreskin fibroblasts (done in the absence of inhibitor). Plaques are quantified at 2 weeks post-infection. An inhibitor of HCMV is identified by the reduction in titer of virus yield in the presence, compared to the titer in the absence of compound. In this assay, the relative anti-HCMV activity of an inhibitor is typically determined by calculating the IC50 or IC90 value, that is, the amount of compound required to reduce the virus yield by 50% or 90%, respectively. Table I describes IC50 data for compounds tested against HCMV.

The subject of assay [2] is HSV-1. Kind of assay: HSV Antiviral (ELISA) Assay. It counts as cell-based, herpes simplex virus type 1. The following applies: Vero cells, HSV-1; for IC50: Human alphaherpesvirus 1, Vero, read-out: IC50 Ug/ml HSV. On the procedure: Vero cells (ATCC #CCL-81) are plated on 96-well tissue culture plates at 3.5×10^4 cells per 100 μl tissue culture DMEM (Dulbecco's modified Eagle media) supplemented with 2% fetal bovine serum (FBS) in each well. After overnight incubation @ 37° C. (in 5% CO2) and 30 minutes prior to infection with HSV-1 (multiplicity of infection equal to 0.006), cells are either untreated, or treated with test compound (multiple concentrations) or reference standard drug control. After approximately 24 hours post-infection incubation @ 37° C. (in 5% CO2), cells are fixed for ELISA assay. The primary antibody is murine anti-HSV glycoprotein D monoclonal primary antibody and the secondary antibody is goat anti-mouse IgG linked to β-galactosidase. Thus the extent of viral replication is determined by assessing β-galactosidase activity by quantifying the generation of the 4-methyl umbelliferone fluorescent cleavage product after addition of the methyl umbelliferyl-β-D-galactoside (Sigma #M1633) substrate on a microfluorimeter (365 nm for excitation and 450 nm for emission). Antiviral activity (IC50) of the test compound is determined by comparing the flourescence obtained in absence of compound to that obtained in the presence of compound.

In assay [3] the test system is VZV strain Ellen. Kind of assay: VZV Antiviral (ELISA) Assay. The format is cell-based, varicella-zoster virus. The following applies: human foreskin fibroblast cells; for IC50 / inhibition at 10 µg/mL: Human alphaherpesvirus 3, Fibroblast; for IC50: read-out: IC50 Ug/ml VZV; for inhibition at 10 µg/mL: read-out: % inhibition 10 ug/ml VZV, 10 ug/ml. On the procedure:
For the generation of stock VZV to be used in the assay, VZV strain Ellen (ATCC #VR-1367) is used to infect human foreskin fibroblast (HFF) cells at low multiplicity (less than 0.1) and incubated overnight at 37° C. in 5% CO2. After the overnight incubation, the mixture of uninfected and VZV-infected HFF infected cells are then harvested and added to each well of 96-well plates (3.5×10^4 cells in 100 μl DMEM supplemented with 2% FBS) which contain test compound or the reference standard drug control (in 100 μl DMEM supplemented with 2% FBS per well). These cells are incubated for three days at 37° C. in 5% CO2, then fixed for ELISA assay. The primary antibody is murine anti-VZV glycoprotein II monoclonal antibody (Applied Biosystems, Inc. #13-145-100) and the secondary antibody is goat anti-mouse IgG linked to β-galactosidase. Thus the extent of viral replication is determined by assessing β-galactosidase activity by quantifying the generation of the 4-methyl umbelliferone fluorescent cleavage product after addition of the methyl umbelliferyl-β-D-galactoside (Sigma #M1633) substrate on a microfluorimeter (365 nm for excitation and 450 nm for emission). Antiviral activity (IC50) of the test compound is determined by comparing the flourescence obtained in absence of compound to that obtained in the presence of compound.
On the technique in general: In an ELISA, binding on a coated surface is turned into a signal by an enzyme label.

Converted amounts (≈) assume the structure as drawn. Where only a bound is given, the exact number is not on record here.

Take `COc1cc(NC(=S)Nc2ccc(NC(C)=O)cc2)c(OC)cc1Cl` [Example 110, N-{4-[3-(4-Chloro-2,5-dimethoxy-phenyl)-thioureido]-phenyl}-acetamide]: the IC50 in assay [1] was 30 µg/mL (≈ 79 µM); in assay [2] it was 12 µg/mL (≈ 31.6 µM); in assay [3], greater than 10 µg/mL. Besides, the inhibition at 10 µg/mL in assay [3] was determined as 25%.

On to `CC(=O)Nc1ccc(NC(=S)Nc2cc(C(F)(F)F)ccc2Cl)cc1` [Example 111, N-{4-[3-(2-Chloro-5-trifluoromethyl-phenyl)-thioureido]-phenyl}-acetamide], for which the figures for the IC50 in assay [1], in assay [2] and in assay [3] were 12 µg/mL (≈ 30.9 µM), 15 µg/mL (≈ 38.7 µM) and greater than 10 µg/mL, respectively. In assay [3], the inhibition at 10 µg/mL was determined as 51%.

Turning to `CC(=O)Nc1ccc(NC(=S)Nc2ccc(Cl)c(C(F)(F)F)c2)cc1` [Example 112, N-{4-[3-(4-Chloro-3-trifluoromethyl-phenyl)-thioureido]-phenyl}-acetamide], the IC50 in assay [1] was 3 µg/mL (≈ 7.74 µM); in assay [2] it was 5 µg/mL (≈ 12.9 µM); in assay [3] it was greater than 10 µg/mL. In assay [3], the inhibition at 10 µg/mL amounted to 55%.

Take `CC(=O)Nc1ccc(NC(=S)Nc2ccc(OC(=O)c3ccccc3)cc2O)cc1` [Example 113, Benzoic acid 4-[3-(4-acetylamino-phenyl)-thioureido]-3-hydroxy-phenylester]: the IC50 was 45 µg/mL (≈ 107 µM) in assay [1], 50 µg/mL (≈ 119 µM) in assay [2] and greater than 10 µg/mL in assay [3]. The inhibition at 10 µg/mL in assay [3] amounted to 39%.

As to `CC(=O)Nc1ccc(NC(=S)Nc2cccc([N+](=O)[O-])c2)cc1` [Example 124, N-{4-[3-(3-Nitro-phenyl)-thioureido]-phenyl}-acetamide], the figures for the IC50 in assay [1], in assay [2] and in assay [3] were 50 µg/mL (≈ 151 µM), 50 µg/mL (≈ 151 µM) and greater than 10 µg/mL, respectively. The inhibition at 10 µg/mL in assay [3] was determined as 0%.

For the compound `CC(=O)Nc1ccc(NC(=S)Nc2cc(Cl)ccc2O)cc1` [Example 126, N-{4-[3-(5-Chloro-2-hydroxy-phenyl)-thioureido]-phenyl}-acetamide], the results for the IC50 in assay [1], in assay [2] and in assay [3] were 20 µg/mL (≈ 59.6 µM), 30 µg/mL (≈ 89.3 µM) and greater than 10 µg/mL, respectively. The inhibition at 10 µg/mL in assay [3] was determined as 23%.

`CC(=O)Nc1ccc(NC(=S)Nc2cc(C)c(O)c(Cl)c2)cc1` [Example 128, N-{4-[3-(3-Chloro-4-hydroxy-5-methyl-phenyl)-thioureido]-phenyl}-acetamide]: the IC50 in assay [1] was 15 µg/mL (≈ 42.9 µM); in assay [2], 15 µg/mL (≈ 42.9 µM); in assay [3] it was greater than 10 µg/mL. In addition, the inhibition at 10 µg/mL in assay [3] is 35%.

`CC(=O)Nc1ccc(NC(=S)Nc2cc(Cl)c(O)c(Cl)c2C)cc1` [Example 129, N-{4-[3-(3,5-Dichloro-4-hydroxy-2-methyl-phenyl)-thioureido]-phenyl}-acetamide]: the IC50 in assay [1] was greater than 50 µg/mL; in assay [2], greater than 50 µg/mL; in assay [3] it was greater than 10 µg/mL. Also, the inhibition at 10 µg/mL in assay [3] worked out at 29%.

For the compound `CC(=O)Nc1ccc(NC(=S)Nc2ccc(O)cc2O)cc1` [Example 130, N-{4-[3-(2,4-Dihydroxy-phenyl)-thioureido]-phenyl}-acetamide], the IC50 in assay [1] is 30 µg/mL (≈ 94.5 µM); in assay [2], greater than 50 µg/mL; in assay [3], greater than 10 µg/mL. Moreover, the inhibition at 10 µg/mL in assay [3] is 30%.

In the case of `COc1cc(OC)c(C(F)(F)F)cc1NC(=S)Nc1ccc(NC(C)=O)cc1` [Example 131, N-{4-[3-(2,4-Dimethoxy-5-trifluoromethyl-phenyl)-thioureido]-phenyl}-acetamide], the IC50 was less than 50 µg/mL in assay [1], 15 µg/mL (≈ 36.3 µM) in assay [2] and greater than 10 µg/mL in assay [3]. In assay [3], the inhibition at 10 µg/mL is 53%.

Turning to `COc1ccc(NC(=S)Nc2ccc(NC(C)=O)cc2)c(O)c1` [Example 132, N-{4-[3-(2-Hydroxy-4-methoxy-phenyl)-thioureido]-phenyl}-acetamide], the figures for the IC50 in assay [1], in assay [2] and in assay [3] were greater than 50 µg/mL, greater than 50 µg/mL and greater than 10 µg/mL, respectively. Also, the inhibition at 10 µg/mL in assay [3] turned out to be 11%.

For `COc1cc(OC)c(NC(=S)Nc2ccc(NC(C)=O)cc2)cc1Br` [Example 150, N-{4-[3-(5-Bromo-2,4-dimethoxy-phenyl)-thioureido]-phenyl}-acetamide], the IC50 was 40 µg/mL (≈ 94.3 µM) in assay [1], 9 µg/mL (≈ 21.2 µM) in assay [2] and greater than 10 µg/mL in assay [3]. In addition, in assay [3], the inhibition at 10 µg/mL came out at 3%.

On to `COc1cc(NC(=S)Nc2ccc(NC(C)=O)cc2)cc(OC)c1OC` [Example 151, N-{4-[3-(3,4,5-Trimethoxy-phenyl)-thioureido]-phenyl}-acetamide], for which the IC50 in assay [1] was 40 µg/mL (≈ 107 µM); in assay [2], greater than 50 µg/mL; in assay [3] it was greater than 10 µg/mL. Besides, the inhibition at 10 µg/mL in assay [3] worked out at 0%.

Regarding `COc1c(NC(=S)Nc2ccc(NC(C)=O)cc2)cc(Cl)c(C)c1Cl` [Example 152, N-{4-[3-(3,5-Dichloro-2-methoxy-4-methyl-phenyl)-thioureido]-phenyl}-acetamide], in assay [1], the “IC50 Ug/ml HCMV” value was determined as 0.8 Ug/ml. In addition, the “IC50 Ug/ml HSV” value in assay [2] was 2 Ug/ml. For the same compound, the “% inhibition 10 ug/ml VZV” value in assay [3] (10 ug/ml) is recorded as 70%. For the same compound, the “IC50 Ug/ml VZV” value in assay [3] was found to be 7.5 Ug/ml.

On to `CCOc1c(Cl)cc(NC(=S)Nc2ccc(NC(C)=O)cc2)cc1Cl` [Example 176, N-{4-[3-(3,5-Dichloro-4-ethoxy-phenyl)-thioureido]-phenyl}-acetamide], for which the IC50 in assay [1] was 0.5 µg/mL (≈ 1.26 µM); in assay [2] it was greater than 50 µg/mL; in assay [3], greater than 10 µg/mL. Also, the inhibition at 10 µg/mL in assay [3] is 24%.

`CCCCOc1c(Cl)cc(NC(=S)Nc2ccc(NC(C)=O)cc2)cc1Cl` [Example 177, N-{4-[3-(4-Butoxy-3,5-dichloro-phenyl)-thioureido]-phenyl}-acetamide]: the IC50 in assay [1] is 3.5 µg/mL (≈ 8.21 µM); in assay [2] it was greater than 50 µg/mL; in assay [3], greater than 10 µg/mL. The inhibition at 10 µg/mL in assay [3] stood at 19%.

`CC(=O)Nc1ccc(NC(=S)Nc2cc(Cl)c(OCc3ccccc3)c(Cl)c2)cc1` [Example 178, N-{4-[3-(4-Benzyloxy-3,5-dichloro-phenyl)-thioureido]-phenyl}-acetamide]: the IC50 was greater than 10 µg/mL in assay [1], greater than 50 µg/mL in assay [2] and greater than 10 µg/mL in assay [3]. For the same compound, in assay [3], the inhibition at 10 µg/mL turned out to be 32%.

Consider `COc1ccc(NC(=S)Nc2ccc(NC(C)=O)cc2)c(OC)c1Cl` [Example 179, N-{4-[3-(3-Chloro-2,4-dimethoxy-phenyl)-thioureido]-phenyl}-acetamide], for which the IC50 in assay [1] is greater than 50 µg/mL; in assay [2], 5 µg/mL (≈ 13.2 µM); in assay [3], greater than 10 µg/mL. In addition, the inhibition at 10 µg/mL in assay [3] turned out to be 35%.

Take `COc1cc(OC)c(NC(=S)Nc2ccc(NC(C)=O)cc2)cc1I` [Example 197, N-{4-[3-(5-Iodo-2,4-dimethoxy-phenyl)-thioureido]-phenyl}-acetamide]: the IC50 in assay [1] is greater than 10 µg/mL; in assay [2], 6 µg/mL (≈ 12.7 µM); in assay [3] it was greater than 15 µg/mL. The inhibition at 10 µg/mL in assay [3] came to 59%.

With `COc1cc(OC)c(NC(=S)Nc2ccc(NC(C)=O)cc2)cc1F` [Example 198, N-{4-[3-(5-Fluoro-2,4-dimethoxy-phenyl)-thioureido]-phenyl}-acetamide], the IC50 was greater than 50 µg/mL in assay [1], 9 µg/mL (≈ 24.8 µM) in assay [2] and greater than 10 µg/mL in assay [3]. Besides, the inhibition at 10 µg/mL in assay [3] was 36%.

`COc1cc(C)c(Cl)cc1NC(=S)Nc1ccc(NC(C)=O)cc1` [Example 199, N-{4-[3-(5-Chloro-2-methoxy-4-methyl-phenyl)-thioureido]-phenyl}-acetamide]: the IC50 in assay [1] is greater than 10 µg/mL; in assay [2], 1.2 µg/mL (≈ 3.3 µM); in assay [3], greater than 15 µg/mL. Moreover, the inhibition at 10 µg/mL in assay [3] stood at 60%.

Source of the values: patent publication US6335350B1, “Acetamide and substituted acetamide-containing thiourea inhibitors of herpes viruses” (American Home Products Corporation, priority 1998, dated 2002).
